PubChem BioAssay (NCI)
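All cell lines were grown in 96-well plates and treated with compound for 48 hours. GI50 is the concentration that inhibits growth by half. TGI denotes the concentration required for complete inhibition of growth.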

Experiments:
Assay in all cases: growth of human tumour cells (NCI), 48 h
PC-3 prostate = system: PC-3 prostate
ACHN renal = system: ACHN renal
HCC-2998 colon = system: HCC-2998 colon
MDA-MB-231 breast = system: MDA-MB-231 breast
KM12 colon = system: KM12 colon
K-562 leukemia = system: K-562 leukemia
BT-549 breast = system: BT-549 breast
MDA-MB-435 = system: MDA-MB-435
NCI/ADR-RES ovarian = system: NCI/ADR-RES ovarian
SN12C renal = system: SN12C renal
MALME-3M melanoma = system: MALME-3M melanoma
OVCAR-3 ovarian = system: OVCAR-3 ovarian
OVCAR-8 ovarian = system: OVCAR-8 ovarian
SK-OV-3 ovarian = system: SK-OV-3 ovarian
A498 renal = system: A498 renal
SR leukemia = system: SR leukemia
SK-MEL-2 melanoma = system: SK-MEL-2 melanoma
DU-145 prostate = system: DU-145 prostate
HCT-15 colon = system: HCT-15 colon
SNB-19 CNS = system: SNB-19 CNS
NCI-H226 lung = system: NCI-H226 lung
A549 NSCLC = system: A549 NSCLC
HOP-62 NSCLC = system: HOP-62 NSCLC
MOLT-4 leukemia = system: MOLT-4 leukemia
SK-MEL-28 melanoma = system: SK-MEL-28 melanoma
LOX IMVI melanoma = system: LOX IMVI melanoma
HT29 colon = system: HT29 colon
UACC-62 melanoma = system: UACC-62 melanoma
SF-295 CNS = system: SF-295 CNS
OVCAR-5 ovarian = system: OVCAR-5 ovarian
TK-10 renal = system: TK-10 renal
UO-31 renal = system: UO-31 renal
HS 578T breast = system: HS 578T breast
OVCAR-4 ovarian = system: OVCAR-4 ovarian
M14 melanoma = system: M14 melanoma
NCI-H23 lung = system: NCI-H23 lung
SF-539 CNS = system: SF-539 CNS
SNB-75 CNS = system: SNB-75 CNS
U251 CNS = system: U251 CNS
T-47D breast = system: T-47D breast
UACC-257 melanoma = system: UACC-257 melanoma
EKVX NSCLC = system: EKVX NSCLC
RXF 393 renal = system: RXF 393 renal
IGROV1 ovarian = system: IGROV1 ovarian
HOP-92 NSCLC = system: HOP-92 NSCLC
CCRF-CEM leukemia = system: CCRF-CEM leukemia
786-0 renal = system: 786-0 renal
SW-620 colon = system: SW-620 colon
SK-MEL-5 melanoma = system: SK-MEL-5 melanoma
NCI-H460 lung = system: NCI-H460 lung
CAKI-1 renal = system: CAKI-1 renal
SF-268 CNS = system: SF-268 CNS
COLO 205 colon = system: COLO 205 colon
NCI-H522 lung = system: NCI-H522 lung
MCF7 breast = system: MCF7 breast
RPMI-8226 leukemia = system: RPMI-8226 leukemia
HCT-116 colon = system: HCT-116 colon
HL-60(TB) leukemia = system: HL-60(TB) leukemia

## CC(C)(C)C#CC1=C(Br)C(=O)OC1
PC-3 prostate
  GI50: 2.39 µM
  TGI: 11.2 µM
ACHN renal
  GI50: 0.266 µM
HCC-2998 colon
  GI50: 1.59 µM
  TGI: 3.12 µM
MDA-MB-231 breast
  GI50: 2.48 µM
  TGI: 11 µM
KM12 colon
  GI50: 1.32 µM
  TGI: 3.6 µM
K-562 leukemia
  GI50: 0.841 µM
BT-549 breast
  GI50: 4.89 µM
  TGI: 19.7 µM
MDA-MB-435
  GI50: 7.44 µM
  TGI: 24.1 µM
NCI/ADR-RES ovarian
  GI50: 0.426 µM
  TGI: 2.8 µM
SN12C renal
  GI50: 6.26 µM
  TGI: 17.7 µM
MALME-3M melanoma
  GI50: 2.08 µM
  TGI: 4.91 µM
OVCAR-3 ovarian
  GI50: 0.935 µM
  TGI: 4.28 µM
OVCAR-8 ovarian
  GI50: 2.54 µM
  TGI: 12.7 µM
SK-OV-3 ovarian
  GI50: > 100 µM
  TGI: > 100 µM
A498 renal
  GI50: 4.04 µM
  TGI: 15.1 µM
SR leukemia
  GI50: > 100 µM
  TGI: > 100 µM
SK-MEL-2 melanoma
  GI50: 12.6 µM
  TGI: 31.7 µM
DU-145 prostate
  GI50: 1.53 µM
  TGI: 3.31 µM
HCT-15 colon
  GI50: 1.6 µM
  TGI: > 22.3 µM
SNB-19 CNS
  GI50: 24.7 µM
  TGI: > 100 µM
NCI-H226 lung
  GI50: 23 µM
  TGI: 68.1 µM
A549 NSCLC
  GI50: 1.3 µM
  TGI: 8.73 µM
HOP-62 NSCLC
  GI50: 0.454 µM
  TGI: 1.48 µM
MOLT-4 leukemia
  GI50: 1.26 µM
  TGI: 5.03 µM
SK-MEL-28 melanoma
  GI50: 1.12 µM
  TGI: 67 µM
LOX IMVI melanoma
  GI50: 1.7 µM
  TGI: > 21.2 µM
HT29 colon
  GI50: 0.116 µM
  TGI: > 100 µM
UACC-62 melanoma
  GI50: 13.2 µM
  TGI: > 45.5 µM
SF-295 CNS
  GI50: 6.9 µM
  TGI: 18.2 µM
OVCAR-5 ovarian
  TGI: 0.608 µM
TK-10 renal
  GI50: 0.36 µM
  TGI: 2.26 µM
UO-31 renal
  GI50: 0.9 µM
  TGI: 3.22 µM
HS 578T breast
  GI50: > 26.9 µM
  TGI: > 78.2 µM
OVCAR-4 ovarian
  GI50: 1.85 µM
  TGI: 19.6 µM
M14 melanoma
  GI50: 3.61 µM
  TGI: 27 µM
NCI-H23 lung
  GI50: 2.16 µM
  TGI: 19 µM
SF-539 CNS
  GI50: 2.74 µM
  TGI: 11.1 µM
SNB-75 CNS
  GI50: 37.7 µM
  TGI: > 100 µM
U251 CNS
  GI50: 0.997 µM
  TGI: > 36.5 µM
T-47D breast
  GI50: 16.5 µM
  TGI: 66.8 µM
UACC-257 melanoma
  GI50: 0.886 µM
  TGI: 4.39 µM
EKVX NSCLC
  GI50: 1.69 µM
  TGI: 4.71 µM
RXF 393 renal
  GI50: 2.44 µM
  TGI: 6.8 µM
IGROV1 ovarian
  GI50: 4.97 µM
  TGI: 23.2 µM
HOP-92 NSCLC
  GI50: 2.82 µM
  TGI: 9.2 µM
CCRF-CEM leukemia
  GI50: 2.45 µM
  TGI: > 27.7 µM
786-0 renal
  GI50: 2.27 µM
  TGI: 5.96 µM
SW-620 colon
  TGI: > 24.9 µM
SK-MEL-5 melanoma
  GI50: > 100 µM
  TGI: > 100 µM
NCI-H460 lung
  GI50: 3.72 µM
  TGI: 15.1 µM
CAKI-1 renal
  GI50: 2.38 µM
  TGI: 6.95 µM
SF-268 CNS
  GI50: 12.7 µM
  TGI: 33.3 µM
COLO 205 colon
  GI50: 31.6 µM
  TGI: > 100 µM
NCI-H522 lung
  GI50: 7.7 µM
  TGI: 22.5 µM
MCF7 breast
  GI50: 3.99 µM
  TGI: 25.9 µM
RPMI-8226 leukemia
  GI50: 0.597 µM
  TGI: 3.71 µM

## Cc1c(C(=O)/C=C/c2csc3ccccc23)[n+](=O)c2ccccc2n1[O-]
PC-3 prostate
  GI50: 1.71 µM
  TGI: 4.3 µM
ACHN renal
  GI50: 1.48 µM
  TGI: 2.8 µM
HCC-2998 colon
  GI50: 1.91 µM
  TGI: 3.38 µM
MDA-MB-231 breast
  GI50: 1.94 µM
  TGI: 4.81 µM
KM12 colon
  GI50: 1.56 µM
  TGI: 2.9 µM
BT-549 breast
  GI50: 1.61 µM
  TGI: 3.88 µM
MDA-MB-435
  GI50: 1.73 µM
  TGI: 3.26 µM
NCI/ADR-RES ovarian
  GI50: 2.01 µM
  TGI: 5 µM
SN12C renal
  GI50: 2 µM
  TGI: 4.72 µM
MALME-3M melanoma
  GI50: 2.29 µM
  TGI: 8.06 µM
OVCAR-3 ovarian
  GI50: 1.32 µM
  TGI: 2.62 µM
OVCAR-8 ovarian
  GI50: 2.37 µM
  TGI: 6.31 µM
SK-OV-3 ovarian
  GI50: 1.79 µM
  TGI: 4.95 µM
A498 renal
  GI50: 3.38 µM
  TGI: 13.8 µM
SR leukemia
  GI50: 1.79 µM
  TGI: 8.69 µM
SK-MEL-2 melanoma
  GI50: 2.06 µM
  TGI: 4.23 µM
DU-145 prostate
  GI50: 1.46 µM
  TGI: 2.78 µM
HCT-15 colon
  GI50: 1.83 µM
  TGI: 4.4 µM
SNB-19 CNS
  GI50: 2.08 µM
  TGI: 4.77 µM
NCI-H226 lung
  GI50: 1.82 µM
  TGI: 4.94 µM
A549 NSCLC
  GI50: 2.13 µM
  TGI: 5.25 µM
HOP-62 NSCLC
  GI50: 1.41 µM
  TGI: 2.8 µM
MOLT-4 leukemia
  GI50: 2.71 µM
  TGI: 7 µM
SK-MEL-28 melanoma
  GI50: 2.07 µM
  TGI: 4.81 µM
LOX IMVI melanoma
  GI50: 1.23 µM
  TGI: 2.47 µM
HT29 colon
  GI50: 2.2 µM
  TGI: 4.13 µM
UACC-62 melanoma
  GI50: 1.77 µM
  TGI: 3.65 µM
SF-295 CNS
  GI50: 1.94 µM
  TGI: 4.83 µM
OVCAR-5 ovarian
  GI50: 1.47 µM
  TGI: 2.94 µM
TK-10 renal
  GI50: 2.79 µM
  TGI: 6.09 µM
UO-31 renal
  GI50: 1.24 µM
  TGI: 2.56 µM
HCT-116 colon
  GI50: 1.37 µM
  TGI: 2.65 µM
HS 578T breast
  GI50: 1.56 µM
  TGI: 5.22 µM
OVCAR-4 ovarian
  GI50: 1.98 µM
  TGI: 4.83 µM
M14 melanoma
  GI50: 1.57 µM
  TGI: 3.21 µM
NCI-H23 lung
  GI50: 1.61 µM
  TGI: 3.49 µM
SF-539 CNS
  GI50: 1.59 µM
  TGI: 3.12 µM
SNB-75 CNS
  GI50: 1.38 µM
  TGI: 3.34 µM
U251 CNS
  GI50: 1.64 µM
  TGI: 3.17 µM
T-47D breast
  GI50: 1.92 µM
  TGI: 5.81 µM
UACC-257 melanoma
  GI50: 1.81 µM
  TGI: 3.73 µM
EKVX NSCLC
  GI50: 1.32 µM
  TGI: 3.64 µM
RXF 393 renal
  GI50: 1.91 µM
  TGI: 3.58 µM
IGROV1 ovarian
  GI50: 1.34 µM
  TGI: 3.04 µM
CCRF-CEM leukemia
  GI50: 2.42 µM
  TGI: 7.56 µM
786-0 renal
  GI50: 1.64 µM
  TGI: 3.09 µM
SW-620 colon
  GI50: 1.49 µM
  TGI: 2.81 µM
HL-60(TB) leukemia
  GI50: 1.78 µM
  TGI: 5.19 µM
SK-MEL-5 melanoma
  GI50: 1.59 µM
  TGI: 2.94 µM
NCI-H460 lung
  GI50: 1.41 µM
  TGI: 2.71 µM
CAKI-1 renal
  GI50: 1.42 µM
  TGI: 3.7 µM
SF-268 CNS
  GI50: 1.44 µM
  TGI: 2.78 µM
NCI-H522 lung
  GI50: 1.78 µM
  TGI: 3.88 µM
MCF7 breast
  GI50: 2.28 µM
  TGI: 8.18 µM
RPMI-8226 leukemia
  GI50: 1.78 µM
  TGI: 4.91 µM
